Data published in ChEMBL document CHEMBL1201862, “PubChem BioAssay data set” (2004).
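How tested: cells in 96-well plates exposed to compound for 48 hours at five concentrations. At the GI50, growth is halved.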 Activity calls are given as the source filed them. Rule as the data show it: active = GI50 up to about 1.1 µM and inactive = higher.

How the values were obtained:
Experiment in all cases: growth of human tumour cells (NCI), 48 h
[1] = tested on: SW-620
[2] = tested on: HCT-116
[3] = tested on: RPMI-8226
[4] = tested on: TK-10
[5] = tested on: LOX IMVI
[6] = tested on: OVCAR-5
[7] = tested on: Malme-3M
[8] = tested on: A549
[9] = tested on: M14
[10] = tested on: PC-3
[11] = tested on: OVCAR-4
[12] = tested on: SF-268
[13] = tested on: NCI-H460
[14] = tested on: NCI/ADR-RES
[15] = tested on: MDA-MB-435
[16] = tested on: MDA-N
[17] = tested on: SN12C
[18] = tested on: M19-MEL

Structure (SMILES)	GI50 [1]	GI50 [2]	GI50 [3]	GI50 [4]	GI50 [5]	GI50 [6]	GI50 [7]	GI50 [8]	GI50 [9]	GI50 [10]	GI50 [11]	GI50 [12]	GI50 [13]	GI50 [14]	GI50 [15]	GI50 [16]	GI50 [17]	GI50 [18]
c1c2c(cc3c1OCO3)-c1cc3ccc4c(c3c[n+]1CC2)OCO4 [COPTISINE CHLORIDE]	0.462 µM (active)	0.447 µM (active)	0.711 µM (active)	> 12.5 µM (inactive)	1.01 µM (active)	> 12.5 µM (inactive)	0.259 µM (active)	4.44 µM (inactive)	1 µM (active)	0.944 µM (active)	5.09 µM (inactive)	2.36 µM (inactive)	0.53 µM (active)	0.348 µM (active)	0.308 µM (active)	0.299 µM (active)	2.09 µM (inactive)	
COc1ncc(C#CC(=O)c2ccccc2OC)c(OC)n1	0.78 µM (active)	4.98 µM (inactive)	2.61 µM (inactive)	0.891 µM (active)	0.281 µM (active)	3.41 µM (inactive)	1.61 µM (inactive)	5.98 µM (inactive)	1.78 µM (inactive)	1.86 µM (inactive)	5.78 µM (inactive)	3.61 µM (inactive)	6.34 µM (inactive)	2.01 µM (inactive)	2.78 µM (inactive)	1.64 µM (inactive)	0.684 µM (active)	
COc1ccc(N2C(=O)C3c4[nH]c5ccc(OC)cc5c4C4CCC(c5ccccc5)CC4C3C2=O)cc1 (centres undefined)	3.82 µM (inactive)	1.11 µM (active)	6.25 µM (inactive)	21.8 µM (inactive)	17.3 µM (inactive)	20.6 µM (inactive)	11.4 µM (inactive)	12.8 µM (inactive)	14.8 µM (inactive)	19.2 µM (inactive)	4.21 µM (inactive)	8.63 µM (inactive)	4.93 µM (inactive)	12.6 µM (inactive)	16.4 µM (inactive)	18.4 µM (inactive)	6.15 µM (inactive)	
CC(C)C(OC(=O)c1cc(NC(=S)c2ccccc2)ccc1Cl)C(C)C	21.8 µM (inactive)	12.3 µM (inactive)	13.3 µM (inactive)	21.5 µM (inactive)	19.8 µM (inactive)	42.7 µM (inactive)	20.4 µM (inactive)	21 µM (inactive)	31.7 µM (inactive)	8.53 µM (inactive)	17.6 µM (inactive)	23 µM (inactive)	14.1 µM (inactive)	16.3 µM (inactive)	14.7 µM (inactive)	16.6 µM (inactive)	14.7 µM (inactive)	
CN(C)/C=C(\C(=O)c1ccccc1)n1nc(-c2ccccc2)cc1-c1ccccc1	> 10 µM (inactive)	> 10 µM (inactive)	> 10 µM (inactive)	> 10 µM (inactive)	> 10 µM (inactive)	> 10 µM (inactive)	> 10 µM (inactive)	> 10 µM (inactive)	> 10 µM (inactive)	> 10 µM (inactive)	> 10 µM (inactive)	> 10 µM (inactive)	> 10 µM (inactive)	> 10 µM (inactive)	> 10 µM (inactive)	> 10 µM (inactive)	> 10 µM (inactive)	
CC(=O)Oc1ccc(-c2cc3ccccc3oc2=O)cc1	> 100 µM (inactive)	> 100 µM (inactive)	> 100 µM (inactive)	> 100 µM (inactive)	81.3 µM (inactive)	> 100 µM (inactive)	> 100 µM (inactive)	> 100 µM (inactive)	> 100 µM (inactive)	> 100 µM (inactive)	> 100 µM (inactive)	> 100 µM (inactive)	> 100 µM (inactive)	> 100 µM (inactive)	> 100 µM (inactive)	> 100 µM (inactive)	> 100 µM (inactive)	
CCCC(=O)n1[nH]c(=O)n(-c2ccc(Cl)cc2)c1=O	> 100 µM (inactive)	> 100 µM (inactive)	> 100 µM (inactive)	> 100 µM (inactive)	> 100 µM (inactive)	> 100 µM (inactive)	43.4 µM (inactive)	> 100 µM (inactive)	> 100 µM (inactive)	> 100 µM (inactive)	> 100 µM (inactive)	> 100 µM (inactive)	> 100 µM (inactive)	> 100 µM (inactive)	> 100 µM (inactive)	> 100 µM (inactive)	> 100 µM (inactive)	
COc1ccc2c(c1)-c1nc(=S)n(CCN(C)C)c3ccc([N+](=O)[O-])c(c13)N2	0.404 µM (active)	0.247 µM (active)	0.573 µM (active)	1.07 µM (active)	0.738 µM (active)	3.13 µM (inactive)	0.693 µM (active)	0.515 µM (active)	2.94 µM (inactive)	1.06 µM (active)	2.36 µM (inactive)	0.671 µM (active)	0.365 µM (active)	1.09 µM (active)	2.1 µM (inactive)	0.948 µM (active)	0.638 µM (active)	
C[N+]1(CCCl)CC[N+](C)(CCCl)CC1 (centres undefined)	> 100 µM (inactive)	> 100 µM (inactive)	> 100 µM (inactive)	> 100 µM (inactive)	> 100 µM (inactive)	> 100 µM (inactive)	> 100 µM (inactive)	> 100 µM (inactive)	> 100 µM (inactive)	> 100 µM (inactive)	> 100 µM (inactive)	> 100 µM (inactive)	> 100 µM (inactive)	> 100 µM (inactive)	> 100 µM (inactive)	> 100 µM (inactive)	> 100 µM (inactive)	
CC(C)(C(=O)N(C(=O)N1CCN(c2ccccc2)CC1)S(=O)(=O)c1ccccc1)c1ccc(Cl)cc1	7.03 µM (inactive)	17.7 µM (inactive)	6.95 µM (inactive)	61.4 µM (inactive)	46.8 µM (inactive)	42.2 µM (inactive)	90.4 µM (inactive)	33.7 µM (inactive)	31.3 µM (inactive)	12.6 µM (inactive)	28.1 µM (inactive)	34.4 µM (inactive)	28.8 µM (inactive)	6.92 µM (inactive)	51.2 µM (inactive)	41.5 µM (inactive)	52.4 µM (inactive)	
Cc1nc2cc([N+](=O)[O-])ccc2c(NCCCN(C)C)c1C	5.3 µM (inactive)	4.68 µM (inactive)	12.9 µM (inactive)	23.5 µM (inactive)	11 µM (inactive)	13.2 µM (inactive)	6.22 µM (inactive)	6.21 µM (inactive)	13.8 µM (inactive)	4.71 µM (inactive)	3.03 µM (inactive)	20.3 µM (inactive)	3.18 µM (inactive)	16.3 µM (inactive)	15.6 µM (inactive)	14.8 µM (inactive)	11.4 µM (inactive)	
c1ccc(NN=C(c2ccccn2)c2ccccn2)nc1	0.141 µM (active)	0.0785 µM (active)	0.211 µM (active)	0.357 µM (active)	0.269 µM (active)	0.794 µM (active)	0.0653 µM (active)	0.384 µM (active)	0.152 µM (active)	0.191 µM (active)	0.213 µM (active)	0.388 µM (active)	0.153 µM (active)	0.157 µM (active)	0.817 µM (active)	0.533 µM (active)	0.142 µM (active)	
C=CCC1=C(C)C[C@@H]2CCC(=O)C=C12	> 100 µM (inactive)	> 100 µM (inactive)	> 100 µM (inactive)	> 100 µM (inactive)	> 100 µM (inactive)	> 100 µM (inactive)	> 100 µM (inactive)	> 100 µM (inactive)	> 100 µM (inactive)		> 100 µM (inactive)	> 100 µM (inactive)	> 100 µM (inactive)				> 100 µM (inactive)	> 100 µM (inactive)
O=C(Nc1noc(-c2ccccc2)n1)c1ccccc1CNc1noc(-c2ccccc2)n1	> 100 µM (inactive)	> 100 µM (inactive)	> 100 µM (inactive)	> 100 µM (inactive)	> 100 µM (inactive)	> 100 µM (inactive)	> 100 µM (inactive)	> 100 µM (inactive)	> 100 µM (inactive)	> 100 µM (inactive)	> 100 µM (inactive)	> 100 µM (inactive)	> 100 µM (inactive)	> 100 µM (inactive)	> 100 µM (inactive)	> 100 µM (inactive)	> 100 µM (inactive)	
COC(=O)C1=C(OC(=O)c2ccccc2)C(C(=O)OC)[C@]2(O)[C@@H](C(=O)OC)[C@H]1C[C@@H](c1ccccc1)[C@@H]2C(=O)OC (some centres undefined)	5.12 µM (inactive)	3.96 µM (inactive)	1.74 µM (inactive)	17.3 µM (inactive)	9.31 µM (inactive)	22.9 µM (inactive)	13.5 µM (inactive)	9.18 µM (inactive)	1.95 µM (inactive)	4.82 µM (inactive)	10.6 µM (inactive)	11.4 µM (inactive)	9.68 µM (inactive)	2.62 µM (inactive)	2.45 µM (inactive)	1.95 µM (inactive)	8.43 µM (inactive)	
Cc1ncc([N+](=O)[O-])n1CCNS(=O)(=O)CCCn1ncnc1[N+](=O)[O-]	> 100 µM (inactive)	> 100 µM (inactive)	> 100 µM (inactive)	> 100 µM (inactive)	> 100 µM (inactive)	> 100 µM (inactive)	> 100 µM (inactive)	> 100 µM (inactive)	> 100 µM (inactive)	> 100 µM (inactive)	> 100 µM (inactive)	> 100 µM (inactive)	> 100 µM (inactive)	> 100 µM (inactive)	> 100 µM (inactive)	> 100 µM (inactive)	> 100 µM (inactive)	
